Earlier results, collected in patent publication US7718389B2, “Stabilizing composition and stabilizing method of coelenterazine solution for high-throughput measurement of luciferase activity” (National Institute of Advanced Industrial Science and …, priority 2006, dated 2010).

Settings: background statement

pKa value of proton of an imidazopyrazinone ring: around 7.4
Compound: Oc1ccc(Cc2nc3c(Cc4ccccc4)nc(-c4ccc(O)cc4)cn3c2O)cc1 [coelenterazine]
